In PubChem BioAssay (NCI) one finds TGI and GI50 data, which are given here for 16 compounds.

What is called TGI is the concentration giving total growth inhibition. As usually defined, the GI50 is the concentration at which growth is held to half of that of the control.

Some test systems named below: MOLT-4 leukemia; NCI-H23 lung; IGROV1 ovarian; HCT-15 colon; OVCAR-8 ovarian; UO-31 renal; SR leukemia; OVCAR-4 ovarian; BT-549 breast.
Assay in all cases: DTP human tumour cell line panel, 48 h

Each structure is given as a SMILES string.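 Five compound concentrations were applied to cells in 96-well plates for 48 hours; endpoints were derived by simple linear interpolation of the resulting dose-response curve. GI50 marks 50% less growth. TGI: total growth inhibition.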

Turning to `Cn1nc(-c2ccccc2)c(C(=O)/C=C/c2ccc(Cl)cc2)c(N2CCCCC2)c1=O`, the TGI with MOLT-4 leukemia turned out to be 4.65 µM; in the experiment on NCI-H23 lung, 5.48 µM; in the experiment with IGROV1 ovarian, 4.95 µM; in the experiment with HCT-15 colon it was 15 µM; in the experiment with OVCAR-8 ovarian, 16.5 µM; in the experiment with UO-31 renal, 3.03 µM.

`CC1=C[C@]2(O)C(=O)[C@H](C)C[C@H]3[C@@H](CC[C@@](C)(O)/C=C\2C1=O)C3(C)C`: the TGI with MOLT-4 leukemia was greater than 62 µM; in the experiment with NCI-H23 lung, 72.6 µM; in the experiment with SR leukemia it was 45.2 µM; with OVCAR-4 ovarian, 71.6 µM; with IGROV1 ovarian, 53.1 µM; in the experiment on HCT-15 colon, 32.4 µM. Moreover, the results for the TGI in the experiment on OVCAR-8 ovarian and in the experiment with UO-31 renal were 46.9 µM and greater than 100 µM, respectively.

As for `CCOc1ccc(N=Cc2ccc3cc(C)ccc3n2)cc1`, the TGI was 76.7 µM in the experiment on MOLT-4 leukemia; greater than 100 µM with NCI-H23 lung; greater than 100 µM in the experiment on OVCAR-4 ovarian; greater than 100 µM in the experiment on IGROV1 ovarian; greater than 100 µM in the experiment with HCT-15 colon; greater than 100 µM with OVCAR-8 ovarian. Further, the TGI in the experiment on UO-31 renal was greater than 100 µM.

For the compound `CC(C)(C)CC(C)(C)c1cc2c(O)c(c1)Cc1cc(C(C)(C)CC(C)(C)C)cc(c1O)Cc1cc(C(C)(C)CC(C)(C)C)cc(c1O)Cc1cc(C(C)(C)CC(C)(C)C)cc(c1O)Cc1cc(C(C)(C)CC(C)(C)C)cc(c1O)C2`, the TGI in the experiment on MOLT-4 leukemia, with NCI-H23 lung, in the experiment on OVCAR-4 ovarian, with IGROV1 ovarian, in the experiment on HCT-15 colon and with OVCAR-8 ovarian was greater than 100 µM each time. The TGI in the experiment with UO-31 renal is greater than 100 µM.

Take `COC(=O)C1=C(O)c2cc(-c3ccccc3)c(-c3ccccc3)c(C#N)c2NC(=O)C1`: the TGI is greater than 100 µM in the experiment with MOLT-4 leukemia; greater than 100 µM with NCI-H23 lung; greater than 100 µM in the experiment on SR leukemia; greater than 100 µM with OVCAR-4 ovarian; 4.74 µM with IGROV1 ovarian; greater than 100 µM in the experiment on HCT-15 colon. Further, the TGI in the experiment on OVCAR-8 ovarian and in the experiment with UO-31 renal was greater than 100 µM each time.

For the compound `Cc1cc(-c2nc3sccn3c2/C=N/N=C(N)N)c(C)s1`, the GI50 with MOLT-4 leukemia is 17.6 µM; in the experiment on NCI-H23 lung, 17.7 µM; in the experiment with OVCAR-4 ovarian, 16.2 µM; in the experiment with BT-549 breast, 18.5 µM; in the experiment with HCT-15 colon, 16.4 µM; in the experiment with OVCAR-8 ovarian, 29.4 µM. In the experiment on UO-31 renal, the GI50 is 21.1 µM. The TGI with MOLT-4 leukemia worked out at 60.7 µM; in the experiment on NCI-H23 lung, 33.7 µM; in the experiment with OVCAR-4 ovarian it was 35.3 µM; in the experiment with BT-549 breast, 33.3 µM; with HCT-15 colon, 30 µM; in the experiment on OVCAR-8 ovarian it was 57 µM. Also, the TGI with UO-31 renal turned out to be 36.9 µM.

On to `COc1ccc2c3c([nH]c2c1[N+](=O)[O-])C(C)N(Cc1ccc([N+](=O)[O-])cc1)CC3` (centres undefined), for which the TGI with MOLT-4 leukemia is greater than 100 µM; in the experiment on NCI-H23 lung, 44.5 µM; in the experiment on SR leukemia it was greater than 100 µM; in the experiment with OVCAR-4 ovarian it was 12.2 µM; with IGROV1 ovarian it was greater than 100 µM; in the experiment with HCT-15 colon, 54.9 µM. Further, the TGI was 64.4 µM in the experiment with OVCAR-8 ovarian and greater than 100 µM in the experiment with UO-31 renal.

Consider `O=C1C=CC(=O)C12CCc1ccccc12`, for which the TGI in the experiment with MOLT-4 leukemia, with NCI-H23 lung, in the experiment with OVCAR-4 ovarian, in the experiment on IGROV1 ovarian, with HCT-15 colon and in the experiment on OVCAR-8 ovarian was greater than 100 µM in each case. The TGI in the experiment with UO-31 renal is greater than 100 µM.

On to `COc1ccc(-c2cc(=O)c3ccccc3o2)cc1N`, for which the TGI with MOLT-4 leukemia, in the experiment on NCI-H23 lung, with OVCAR-4 ovarian, in the experiment on IGROV1 ovarian, in the experiment with HCT-15 colon and with OVCAR-8 ovarian was greater than 100 µM each time. The same compound yielded a TGI with UO-31 renal greater than 100 µM.

In the case of `O=C1[C@H]2ON(c3ccccc3)C(c3ccccc3)[C@H]2C(=O)N1c1ccc(Cc2ccc(N3C(=O)[C@@H]4ON(c5ccccc5)C(c5ccccc5)[C@@H]4C3=O)cc2)cc1` (some centres undefined), the TGI in the experiment on MOLT-4 leukemia, in the experiment with NCI-H23 lung, in the experiment on OVCAR-4 ovarian, with IGROV1 ovarian, in the experiment with HCT-15 colon and in the experiment on UO-31 renal was greater than 100 µM throughout.

Take `O=C1O[C@H](c2ccccc2)[C@@H]2CC3(CCN12)OCCO3`: the TGI with MOLT-4 leukemia, in the experiment on NCI-H23 lung, in the experiment on SR leukemia, with OVCAR-4 ovarian, in the experiment with IGROV1 ovarian and with HCT-15 colon was greater than 100 µM in each case. For the same compound, the TGI in the experiment with OVCAR-8 ovarian and in the experiment on UO-31 renal was greater than 100 µM each time.

For the compound `CCN(CC)CCCNC(=O)C1COc2cc(-c3cc(=O)c4ccccc4o3)ccc2O1` (centres undefined), the TGI in the experiment with MOLT-4 leukemia was greater than 100 µM; in the experiment on NCI-H23 lung it was greater than 100 µM; in the experiment on SR leukemia, 47.9 µM; in the experiment on OVCAR-4 ovarian, greater than 100 µM; in the experiment on IGROV1 ovarian, greater than 100 µM; with HCT-15 colon it was greater than 100 µM. Further, the TGI in the experiment on OVCAR-8 ovarian and in the experiment with UO-31 renal was greater than 100 µM throughout.

For the compound `O=C(O)NC(c1ccccc1)C(NC(=O)c1ccccc1)c1ccccc1` (centres undefined), the TGI in the experiment on NCI-H23 lung, in the experiment on SR leukemia, in the experiment on OVCAR-4 ovarian, with IGROV1 ovarian, in the experiment on HCT-15 colon and in the experiment with OVCAR-8 ovarian was greater than 100 µM each time.

As to `CCOC(=O)Cc1ccc2c(c1O)C(=O)c1c(ccc(CC(=O)OCC)c1O)C2=O`, the total growth inhibition concentration (TGI) in the experiment with MOLT-4 leukemia, with NCI-H23 lung, in the experiment with SR leukemia, in the experiment with OVCAR-8 ovarian and with UO-31 renal was greater than 100 µM throughout.

`O=C(c1ccccc1)c1c(-c2ccccc2)sc2nc3ccccc3nc12`: the TGI with MOLT-4 leukemia, in the experiment on NCI-H23 lung, with OVCAR-4 ovarian, in the experiment with IGROV1 ovarian, in the experiment with HCT-15 colon and in the experiment with OVCAR-8 ovarian was greater than 100 µM in each case.

With `CC(=O)c1cccc(C)c1C(=O)O`, the TGI in the experiment with MOLT-4 leukemia, in the experiment on NCI-H23 lung, in the experiment with SR leukemia, in the experiment with OVCAR-4 ovarian, in the experiment with IGROV1 ovarian and with HCT-15 colon was greater than 100 µM throughout. In addition, the TGI with OVCAR-8 ovarian and in the experiment on UO-31 renal was greater than 100 µM in each case.
